Counter-ions that a name gives are not always drawn.
System: SL-induced scratching behavior in mice
Assay: Inhibitory effect against sodium laurate-induced scratching behavior in mice
Format: in vivo, male ICR mice
Details: topical; for (b) average percentage of the number of scratches for 60 minutes relative to solvent control group taken as 100% / (a) mean plus/minus standard deviation of the number of scratches for 60 minutes: 10% SL 50 μL on rostral back, 90 min later 50 μL of 2.5% by mass test substance in 50% ethanol; for (a) mean plus/minus standard deviation of the number of scratches for 60 minutes: solvent control 80±2; for judgment of effectiveness as HDC activation inhibitor (antipruritic agent); effective if number of scratches is 80% or less of solvent control: 10% SL, 2.5% by mass test substance in 50% ethanol
Procedure: Test substances were evaluated for their HDC activation inhibitor (antipruritic agent) effect on the basis of their inhibitory effect on mice's scratching behavior induced by irritation with SL. The test substances used were apigenin, luteolin, sterubin, prunetin, tannic acid, chlorogenic acid, resveratrol, diphenhydramine hydrochloride, and d-chlorpheniramine maleate. Among these substances, diphenhydramine hydrochloride and d-chlorpheniramine maleate were conventionally known as antihistamic agents and served as comparative test substances.
Procedure: the test animals used were male ICR mice aged 7-8 weeks. At least 3 days before the test was conducted, the mice were shaved over a 6 cm^2 (2×3 cm) area on the rostral back.
The mice were divided into test substance group (n=3 or 4) and solvent control group (n=3). Fifty microliters of a 10% SL aqueous solution was applied to the rostral back of the mice to induce the mice's scratching behavior. Ninety minutes after the application of the SL solution, fifty microliters of a solution prepared with 50% ethanol to give a test substance concentration of 2.5% by mass was applied to the rostral back of the mice of the test substance group, and fifty microliters of 50% ethanol alone was applied to that of the solvent control group. The scratching behavior in the mice was evaluated by the following procedure.
More specifically, the mice treated as above were housed in acrylic cages (26×18×30 cm) divided into 4 sections, one mouse per section, and after the mice were acclimated for at least 30 minutes in an unattended environment, the behavior of the mice was recorded on video for 60 minutes. The recorded video was reviewed to check for the scratching behavior of the mice and visually count the number of a series of scratching behaviors which consist of an animal scratching the rostral back with a posterior leg and putting down the leg. Additionally, in the untreated group (n=4), the mice shaved on the rostral back but not treated with any of a SL solution, a test substance or 50% ethanol were evaluated for their scratching behavior by the same procedure.
According to these evaluation results, the number of scratches for 60 minutes is about 80 to 90 times in the solvent control, diphenhydramine hydrochloride, and d-chlorpheniramine maleate groups, while that number is about 40 times or less in all the test substance groups from apigenin to resveratrol. Regarding the inhibitory effect of the test substances on the number of scratches in mice, a possible criterion for judgment is that a test substance be judged to be effective as the HDC activation inhibitor (antipruritic agent) of the present invention if the number of scratches in the test substance group is 80% or less of that in the solvent control group.
In addition, with regard to FIG. 4, the values of the following two variables are listed below for each group: (a) the mean plus/minus standard deviation of the number of scratches for 60 minutes, and (b) the average value for the percentage of the number of scratches for 60 minutes in each group relative to that in the solvent control group which is taken as 100%.

SMILES | (b) average percentage of the number of scratches for 60 minutes relative to solvent control group taken as 100% [%] | (a) mean plus/minus standard deviation of the number of scratches for 60 minutes | judgment of effectiveness as HDC activation inhibitor (antipruritic agent); effective if number of scratches is 80% or less of solvent control
CN(C)CC[C@@H](c1ccc(Cl)cc1)c1ccccn1.O=C(O)/C=C\C(=O)O [D-chlorpheniramine maleate, d-chlorpheniramine maleate, reference compound] | 113.6 | 91±28 | not certain
O=c1cc(-c2ccc(O)cc2)oc2cc(O)cc(O)c12 [Apigenin, apigenin] | 40.5 | 32±5 | –
CN(C)CCOC(c1ccccc1)c1ccccc1 [Diphenhydramine hydrochloride, diphenhydramine hydrochloride, reference compound] | 93.8 | 75±25 | not certain
COc1cc(O)c2c(=O)c(-c3ccc(O)cc3)coc2c1 [Prunetin, prunetin] | 52.7 | 42±11 | –
O=c1cc(-c2ccc(O)c(O)c2)oc2cc(O)cc(O)c12 [Luteolin, luteolin] | 43.0 | 34±3 | –
O=C(/C=C/c1ccc(O)c(O)c1)O[C@@H]1C[C@](O)(C(=O)O)C[C@@H](O)[C@H]1O [Chlorogenic acid, chlorogenic acid] | 50.8 | 41±8 | –
O=C(OC[C@H]1O[C@@H](OC(=O)c2cc(O)c(O)c(OC(=O)c3cc(O)c(O)c(O)c3)c2)[C@H](OC(=O)c2cc(O)c(O)c(OC(=O)c3cc(O)c(O)c(O)c3)c2)[C@@H](OC(=O)c2cc(O)c(O)c(OC(=O)c3cc(O)c(O)c(O)c3)c2)[C@@H]1OC(=O)c1cc(O)c(O)c(OC(=O)c2cc(O)c(O)c(O)c2)c1)c1cc(O)c(O)c(OC(=O)c2cc(O)c(O)c(O)c2)c1 [Tannic acid, tannic acid] | 53.7 | 43±22 | –
COc1cc(O)c2c(c1)O[C@H](c1ccc(O)c(O)c1)CC2=O [Sterubin, sterubin] | 44.4 | 35±14 | –
Oc1ccc(/C=C/c2cc(O)cc(O)c2)cc1 [Resveratrol, 3,5,4′-trihydroxy-trans-stilbene] | 31.7 | 25±14 | –

From patent publication US20150202243A1, “HDC Activation Inhibitor, HDC Activation Inhibition Composition, Antipruritic Agent, and Antipruritic Agent Composition” (HOYU CO., LTD., priority 2012, published 2015)
